# Source: patent publication US12371429B2, “Antibiotic resistance-modifying tricyclic heteroaryl compounds and uses thereof” (Recreo Pharmaceuticals LLC, priority 2018, dated 2025)
# Like-named read-outs stand apart in the source and are kept apart here.
# Key:
# [1] = system: Staphylococcus aureus (MRSA, NRS384); experiment: MIC determination, broth microdilution; assay type: cell-based
# Excerpt: (§1) Bacterial strains representing pathogenic species of clinical concern, the so called ESKAPE pathogens, were selected for MIC studies using compounds A and B. The results are shown in Table A. These species are from the families or genera Enterococcus, Staphylococcus, Klebsiella, Acinetobacter, Pseudomonas, and Enterobacteriaceae. Specifically, Enterococcus faecium HM-204 and HM-460, Staphylococcus aureus strains NRS384 and COL, Klebsiella pneumoniae strains NR-48976 and NR-48977, Acinetobacter baumannii strains NR-17783 and NR-19299, Pseudomonas aeruginosa strain NR-48982 and Salmonella enterica strains NR-22067 and NR-22068 were purchased from BEI resources. Escherichia coli strain ATCC 25922, and the Staphylococcus aureus (S. aureus) strains ATCC 25923 (MSSA) and ATCC BAA-44 (MRSA) were purchased from the American Type Culture Collection (ATCC).
# (§2) General Procedure for Minimal inhibitory concentration (MIC) determination. The minimal inhibitory concentrations (MICS) of antimicrobial compounds A, B, and C were determined by the broth microdilution method detailed in the Clinical and Laboratory Standards Institute handbook (Cockerill and Clinical and Laboratory Standards Institute, Methods for Dilution Antimicrobial Susceptibility Tests for Bacteria That Grow Aerobically). All antimicrobial compounds were purchased from Sigma-Aldrich. The growth media used for all MIC experiments, except those for Enterococcus faecium, was Mueller Hinton Broth (MHB) purchased from HIMEDIA through VWR (cat: 95039-356). For experiments using Enterococcus faecium, the growth and susceptibility medium was BD Bacto™ Brain Heart Infusion (BHI) Broth purchased from VWR (cat: 90003-040). USA Scientific CytoOne 96-well Clear Tissue Culture assay plates (cat: CC7682-7596) were used for all MIC and MRC experiments. MIC assay plates were prepared by diluting the antibiotic to be tested in a 2-fold series down the assay plate. A total of 8 concentrations of each compound were tested in triplicate. Compounds were prepared in 180 μL at 2× the intended final concentrations in MHB or BHI and 2% DMSO.
# (§3) The bacterial inoculum was prepared by selecting 5-7 colonies from an agar plate to make a day culture in BHI of the bacterial species to be assayed. This was grown at 37° C. for 2-4 hours. After having reached the mid-logarithmic growth phase (OD600 0.15-0.4), the day culture was diluted in the appropriate assay medium (MHB or BHI) to OD600 0.002. 100 μL of this inoculum was added to each experimental well of the 96-well assay plate resulting in an additional two-fold dilution of the bacterial culture and an initial OD600 of 0.001 in the assay plate, a final volume of 200 μL and the intended compound concentrations in 1% DMSO. MIC assay plates were then incubated at 37° C. with shaking for 18 hours.
# (§4) The MICs were determined as defined in the Clinical and Laboratory Standards Institute handbook. After overnight growth, Plates were read by eye and 600 nm absorbance read using a BioTek Epoch2 Microplate Spectrophotometer (BioTek).
# [2] = system: MRSA strain BAA-44; experiment: MIC determination, broth microdilution; assay type: cell-based, Staphylococcus aureus
# Excerpt: as §1, §2, §3, §4
# [3] = system: MRSA strain BAA-44; experiment: Antibiotic MICs in the presence of Compound C; assay type: cell-based, Staphylococcus aureus; settings: MRSA BAA-44; in the presence of 5 mg/L Compound C
# Method: as §2, §3, §4
# (§5) Determination of Antibiotic MICs in the Presence of Compound C against MRSA and MSSA. Methicillin-resistant S. aureus (MRSA) strain ATCC BAA-44 and the methicillin-sensitive S. aureus (MSSA) strain ATCC 25923 were used to determine the MIC values of various antimicrobial compounds in the presence of 5 μg/mL Compound C. […] The test antibiotics were then diluted into assay plates as described earlier. The final concentration of Compound C after inoculation with BAA-44 was 5 μg/mL. MIC values were determined by the methods described above.
# [4] = system: MRSA strain NRS-384; experiment: Antibiotic MICs in the presence of Compound C; assay type: cell-based, Staphylococcus aureus; settings: MRSA NRS-384; in the presence of 5 mg/L Compound C
# Method: [The source words this procedure for another variant and reports this variant under the same test.] as §2, §3, §4, §5
# [5] = system: MRSA strain ATCC 700789; experiment: MIC determination, broth microdilution; assay type: cell-based, Staphylococcus aureus; settings: MRSA strain ATCC 700789 (Table C)
# Method: as §2, with “Compounds were prepared in 180 μL at 2× the intended final concentrations in MHB or BHI and 2% DMSO.” left out
# as §4
# [6] = system: MRSA strain ATCC-33592; experiment: MIC determination, broth microdilution; assay type: cell-based, Staphylococcus aureus; settings: MRSA strain ATCC-33592 (Table C)
# Method: as §2, with “Compounds were prepared in 180 μL at 2× the intended final concentrations in MHB or BHI and 2% DMSO.” left out
# as §4
# [7] = system: MRSA strain ATCC 700789; experiment: Minimal re-sensitizing concentration (MRC) determination; assay type: cell-based, Staphylococcus aureus
# Method: (§6) Minimal re-sensitizing concentration (MRC) determination. Antibiotic MIC breakpoint values where S. aureus is considered susceptible were determined from the CLSI handbook supplement. MHB was supplemented with the antibiotic at a concentration two-fold greater than the CLSI susceptible MIC value. Two-fold serial dilutions of Compound C were prepared in antibiotic supplemented media in 96-well microplates. These were inoculated with MRSA diluted to OD600 0.002 and incubated at 37° C. with shaking for 18 hours before results were interpreted. The concentration of […] in antibiotic supplemented media at which there was no observable growth was considered the minimum re-sensitizing concentration (MRC).
# [8] = system: MRSA strain ATCC-33592; experiment: as above; assay type: cell-based, Staphylococcus aureus
# Method: as §6
# [9] = system: MRSA strain BAA-44; experiment: as above; assay type: cell-based, Staphylococcus aureus
# Method: as §6
# [10] = system: MRSA strain NRS-384; experiment: as above; assay type: cell-based, Staphylococcus aureus
# Method: as §6
# [11] = Staphylococcus aureus, MRSA NRS-384, in the absence of Compound C, read-out: MIC mg/L (NRS-384)
# [12] = Staphylococcus aureus, MRSA BAA-44, in the absence of Compound C, read-out: MIC mg/L (BAA-44)
# [13] = medium supplemented with amox/clav
# [14] = medium supplemented with cefazolin
SMILES,"MIC [1, 11] [mg/L]","MIC [2, 12] [mg/L]",MIC (BAA-44) (+5 mg/L Compound C) [3] [µg/mL],MIC (NRS-384) (+5 mg/L Compound C) [4] [µg/mL],also measured
"Cc1nnc(SCC2=C(C(=O)O)N3C(=O)[C@@H](NC(=O)Cn4cnnn4)[C@H]3SC2)s1 [Cefazolin, reference compound]",64,128,<2,<2,–
CCC[C@@H]1C[C@@H](C(=O)N[C@@H]([C@H]2O[C@H](SC)[C@H](O)[C@@H](O)[C@H]2O)[C@H](C)Cl)N(C)C1 [Clindamycin],0.125,> 4,>4,<0.03125,–
O=C(c1ccc(Cl)cc1)N1CCc2c([nH]c3ccc(Cl)cc23)C1 [Compound C],> 100,> 100,–,–,"MIC ([1]; MRSA strain NRS-384 (Table C)): > 64 mg/L; MIC ([2]; MRSA strain BAA-44 (Table C)): 64 mg/L; MIC [5]: > 64 µg/mL; MIC [6]: 4 µg/mL; MRC to Amox/clav [7, 13]: 4; MRC to Cefazolin [7, 14]: 4; MRC to Amox/clav [8, 13]: 2; MRC to Cefazolin [8, 14]: 2; MRC to Amox/clav ([9]; medium supplemented with amox/clav at two-fold greater than the CLSI susceptible MIC): 4; MRC to Cefazolin ([9]; medium supplemented with cefazolin at two-fold greater than the CLSI susceptible MIC): 4; MRC to Amox/clav [10, 13]: 2; MRC to Cefazolin [10, 14]: 4"
CC(=O)NC[C@H]1CN(c2ccc(N3CCOCC3)c(F)c2)C(=O)O1 [Linezolid],2,1,0.5,1,–
"C[C@@H](O)[C@H]1C(=O)N2C(C(=O)O)=C(S[C@@H]3CN[C@H](C(=O)N(C)C)C3)[C@H](C)[C@H]12 [Meropenem, reference compound]",8,16,<0.25,<0.25,–
"COc1cccc(OC)c1C(=O)N[C@@H]1C(=O)N2[C@@H]1SC(C)(C)[C@@H]2C(=O)O [Methicillin, reference compound]",256,> 256,4,8,–
"Cc1onc(-c2ccccc2)c1C(=O)N[C@@H]1C(=O)N2[C@@H]1SC(C)(C)[C@@H]2C(=O)O [Oxacillin, reference compound]",64,64,<2,<2,–
CO[C@H]1/C=C/O[C@@]2(C)Oc3c(C)c(O)c4c(O)c(c(/C=N/N5CCN(C)CC5)c(O)c4c3C2=O)NC(=O)/C(C)=C\C=C\[C@H](C)[C@H](O)[C@@H](C)[C@@H](O)[C@@H](C)[C@H](OC(C)=O)[C@@H]1C [Rifampicin],< 0.0312,1,–,<0.03125,–
[H]/N=C(/N)N[C@H]1[C@H](O)[C@@H](O)[C@H](O[C@@H]2O[C@@H](C)[C@](O)(C=O)[C@H]2O[C@@H]2O[C@@H](CO)[C@H](O)[C@@H](O)[C@@H]2NC)[C@@H](N/C(N)=N\[H])[C@@H]1O [Streptomycin],8,> 32,>32,1,–
CN(C)[C@@H]1C(O)=C(C(N)=O)C(=O)[C@@]2(O)C(O)=C3C(=O)c4c(O)cccc4[C@@](C)(O)[C@H]3C[C@@H]12 [Tetracycline],8,16,4,4,–
CN[C@H](CC(C)C)C(=O)N[C@H]1C(=O)N[C@@H](CC(N)=O)C(=O)N[C@H]2C(=O)N[C@H]3C(=O)N[C@H](C(=O)N[C@H](C(=O)O)c4cc(O)cc(O)c4-c4cc3ccc4O)[C@H](O)c3ccc(c(Cl)c3)Oc3cc2cc(c3O[C@@H]2O[C@H](CO)[C@@H](O)[C@H](O)[C@H]2O[C@H]2C[C@](C)(N)[C@H](O)[C@H](C)O2)Oc2ccc(cc2Cl)[C@H]1O [Vancomycin],–,–,0.5,0.5,"MIC ([1]; Staphylococcus aureus, read-out: MIC mg/L (NRS-384)): 1 mg/L; MIC ([2]; Staphylococcus aureus, read-out: MIC mg/L (BAA-44)): 1 mg/L"
